Laboratory results as given in patent US7329494B2, “Method of detection and quantification of cGMP by using a cGMP-visualizing probe” (Japan Science and Technology Corporation, priority 2000, dated 2008).

Tested on: intracellular cGMP in CGY-Del1-expressing HEK293 cells
Assay: Intracellular cGMP detected by emission ratio in CGY-expressing HEK293 cells stimulated with NOC-7
Format: cell-based, Human
Method: Human embryonic kidney cells (HEK293) were cultured in Dulbecco's modified eagle medium supplemented with 10% FCS, 1 mM sodium pyruvate, and 0.1 mM nonessential amino acids at 37° C. in 5% CO2, to give HEK293 cells.
The resulting HEK293 cells were transfected by the same method as in Example 2 with CGY-Del1, CGY-Del2, CGY-Del3 and CGY-Del4 expression vectors, to give HEK293 cells expressing each type of CGY.
The cGMP-visualizing probes were used to detect intracellular cGMP generated upon stimulation of the living cells with nitrogen monoxide (NO).
First, to activate the soluble guanylyl cyclase in the HEK293 cells having CGY-Del1 introduced therein obtained in Example 6, NOC-7, a compound for releasing NO spontaneously in a rate-controlled manner, was added to give its final extracellular concentration of 500 μM.
Accordingly, 1 mM 8-Br-cGMP, a phosphodiesterase-resistant analogue of cGMP, was added to the system described above.

## Nc1nc2c(nc(Br)n2[C@@H]2O[C@@H]3COP(=O)(O)O[C@H]3[C@H]2O)c(=O)[nH]1 [8-Br-cGMP]
Added 900 seconds after 500 μM NOC-7, 1 mM 8-Br-cGMP
  emission ratio on addition after NOC-7-induced decrease and recovery: decreased again

## CNCCCN(C)/[N+]([O-])=N/O [NOC-7]
500 μM NOC-7
  emission ratio upon addition of NOC-7: rapidly decreased

## O=c1onc2cnc3ccccc3n12 [ODQ]
10 μM ODQ, 500 μM NOC-7
  NOC-7-induced emission ratio change in cells pre-treated with ODQ: change in the emission ratio elicited by NOC-7 was not observed

## CCCOc1ccccc1-c1nc2nn[nH]c2c(=O)[nH]1 [zaprinast]
100 μM zaprinast, 500 μM NOC-7
  NOC-7-induced emission ratio change in cells treated with zaprinast: later slower increase in the emission ratio was not observed
